Several values for one entry are separate records, joined by “and”; a condition that tells them apart may be missing. Identical values can stand only once. Counter-ions that a name gives are not always drawn. Residues, ends and D or L forms follow the SMILES beside them.
Experiments:
human DPP III = molecular target: T1, human DPP III (Homo sapiens, UniProt Q9NY33); assay: hDPP III enzyme activity assay (% inhibition and IC50), substrate Arg-Arg-2-naphthylamide; assay type: biochemical; details: for IC50: at least seven concentrations, nonlinear regression, three replicates; for log % inh. exp.: logarithm of % inhibition at 30 μmol L^–1; for inhibition at 30 µM: pH 7.4, 30 μmol L^–1 compound, recombinant hDPP III 0.75 nM, Arg-Arg-2-naphthylamide 40 μM, pH 7.4, 37 °C, average of three determinations ± SD
T1 construct: C-terminally truncated human DPP III was expressed and purified as described previously; His-tag (TEV-cleavable) (C, cleaved yes); made in house; host or cells: E. coli BL21-CodonPlus (DE3)-RIL
T1 sequence (Q9NY33 1-726 limits assumed): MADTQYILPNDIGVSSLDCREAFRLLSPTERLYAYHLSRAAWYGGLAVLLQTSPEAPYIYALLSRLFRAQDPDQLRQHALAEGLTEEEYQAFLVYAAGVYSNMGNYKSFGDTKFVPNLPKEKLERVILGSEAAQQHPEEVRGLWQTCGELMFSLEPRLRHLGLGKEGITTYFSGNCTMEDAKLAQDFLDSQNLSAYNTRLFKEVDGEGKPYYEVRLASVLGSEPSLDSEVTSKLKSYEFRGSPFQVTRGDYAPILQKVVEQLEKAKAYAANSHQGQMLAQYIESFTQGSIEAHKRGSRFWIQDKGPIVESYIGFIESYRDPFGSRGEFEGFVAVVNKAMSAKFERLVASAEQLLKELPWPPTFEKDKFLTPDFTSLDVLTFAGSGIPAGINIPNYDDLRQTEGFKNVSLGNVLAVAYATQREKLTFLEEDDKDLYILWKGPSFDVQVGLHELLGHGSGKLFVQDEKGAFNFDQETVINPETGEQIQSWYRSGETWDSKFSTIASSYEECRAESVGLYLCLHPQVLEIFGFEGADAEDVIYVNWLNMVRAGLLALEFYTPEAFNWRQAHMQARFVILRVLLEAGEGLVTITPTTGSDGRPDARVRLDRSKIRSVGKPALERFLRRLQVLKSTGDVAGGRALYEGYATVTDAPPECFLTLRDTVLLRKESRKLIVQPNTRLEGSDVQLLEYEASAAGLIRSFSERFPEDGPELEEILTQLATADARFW
Experimental: C-terminally truncated human DPP III was expressed and purified as described previously. In brief, C-terminal HIS-tagged recombinant human DPP III was expressed in E. coli BL21-CodonPlus (DE3)-RIL cells, Agilent (Santa Clara, CA, USA). Overexpression was induced by 0.25 mM isopropyl-b-D-1-thiogalactopyranoside (IPTG, Fermentas), and the cells were grown for 20 h at 18 °C and 130 rpm. Obtained bacterial cells were lysed by a combination of lysozyme lysis and sonication, then treated with DNase I and centrifuged at 4000× g for 15 min to precipitate the cell debris. The lysate was purified by affinity chromatography on a Ni-NTA column (5 mL prepacked His-trap FF) GE Healthcare (Chicago, IL, USA) using a buffer system with 50 mM Tris- HCl, pH = 8.0, 300 mM NaCl, and increasing imidazole concentrations: 10 mM for lysis, 20 mM for wash, and 300 mM for elution buffer. All hDPP III active fractions were pooled and incubated with TEV protease to remove the HIS-tag. Human DPP III was recovered using flow-through affinity chromatography (TEV protease is His-tagged), and additionally purified on a 16/60 Superdex-200 gel-filtration column GE Healthcare (Chicago, IL, USA). Fractions with hDPP III were desalted on PD-10 columns GE Healthcare (Chicago, IL, USA). Purified protein in 20 mM Tris-HCl buffer pH = 7.4 was stored at -80 °C until use. Recombinant hDPP III (0.75 nM) was preincubated with benzimidazole derivatives (30 μM) first for 10 min at 25 °C and then for 5 min at 37 °C in 50 mM Tris-HCl buffer, pH 7.4. The enzymatic reaction was started with Arg-[…]-naphthylamide (40 μM) as a substrate, and after the 15 min incubation at 37 °C in a water bath, the reaction was stopped, and the absorbance was measured using the spectrophotometric method described by Abramić et al.. All benzimidazole derivatives were prepared daily in dimethyl sulfoxide, and the resulting stock solutions (4 mM) were transparent, without turbidity or solid residue. […] Before the enzyme assay, stock solutions were diluted with 50 mM Tris-HCl buffer, pH 7.4. […] The percentage of enzyme inhibition under at least seven different concentration gradients was imported into GraphPad Prism 10.4.1 software to calculate IC50 values of the compounds using nonlinear regression analysis from the mean inhibitory value of three replicates. The relative occupancy of inhibition for compounds with the same substituent at position 6 of the benzimidazole core was defined as the sum of their % inh., expressed relative to their maximum achievable inhibition, which was set at 100.

HCT116 = system: HCT116; parameters: method as in doi:10.5562/cca3531; details: cited from earlier work
MCF-7 = system: MCF-7; parameters: method as in doi:10.5562/cca3531; details: cited from earlier work
H460 = system: H460; parameters: method as in doi:10.5562/cca3531; details: cited from earlier work
hDPP III = molecular target: hDPP III; parameters: method as in PMID 18163885; details: read-out: inhibition constant (Ki); cited from earlier work

SMILES	IC50 (human DPP III)	log % inh. exp. (human DPP III)	inhibition at 30 µM (human DPP III)	antiproliferative activity (HCT116)	antiproliferative activity (MCF-7)	antiproliferative activity (H460)	Ki (hDPP III)
c1ccc2c(c1)cc(-c1nc3cc(C4=NCCN4)ccc3[nH]1)c1ccccc12 [b2, 5(6)-(2-imidazolinyl)-2-(phenanthren-9-yl)-1H-benzo[d]imidazole]	< 20 µM and 11.1 µM	2.00	≥ 90%				
N=C(N)c1ccc2nc(-c3ccc(-c4cccs4)s3)[nH]c2c1 [a4]	< 20 µM and 8.34 µM	2.00	≥ 90%				
N[C@@H](Cc1ccc(O)cc1)C(=O)N[C@@H](Cc1ccccc1)C(=O)NO [Tyr-Phe-NHOH] (HELM PEPTIDE1{Y.F.[ON[*:1]]}$$$$V2.0)							0.15 ± 0.04 µM
c1ccc2c(c1)cc(-c1nc3cc(C4=NCCCN4)ccc3[nH]1)c1ccccc12 [c8]		1.71	51.7 ± 0.2%				

Now from value to compound, other results behind:

IC50 (human DPP III)	log % inh. exp. (human DPP III)	inhibition at 30 µM (human DPP III)	SMILES	antiproliferative activity (HCT116)	antiproliferative activity (MCF-7)	antiproliferative activity (H460)	Ki (hDPP III)
< 20 µM and 1.03 µM	2.00	≥ 90%	Oc1ccc(-c2nc3ccc(C4=NCCN4)cc3[nH]2)c(O)c1O [b13, 5(6)-(4,5-Dihydro-1H-imidazol-3-ium-2-yl)-2-(2,3,4-trihydroxyphenyl)benzimidazole chloride]				
< 20 µM and 8.18 µM	2.00	≥ 90%	FC(F)(F)c1ccc(-c2nc3ccc(C4=NCCN4)cc3[nH]2)cc1 [b6]	displayed antiproliferative activity	displayed antiproliferative activity	displayed antiproliferative activity	
< 20 µM and 4.98 µM	2.00	≥ 90%	c1csc(-c2ccc(-c3nc4ccc(C5=NCCN5)cc4[nH]3)s2)c1 [b4]				
< 20 µM and 8.44 µM	2.00	≥ 90%	CCN(CC)c1ccc(-c2nc3ccc(C(=N)N)cc3[nH]2)c(O)c1 [a2, 5(6)-amidino-2-[4-(N,N-diethylamino)-2-hydroxyphenyl]benzimidazole hydrochloride]				
< 20 µM and 9.83 µM	1.99	≥ 90%	N=C(N)c1ccc2nc(-c3ccc(C(F)(F)F)cc3)[nH]c2c1 [a6]	displayed antiproliferative activity	displayed antiproliferative activity	displayed antiproliferative activity	

From publication PMC12027992, “New Amidino-Substituted Benzimidazole Derivatives as Human Dipeptidyl Peptidase III Inhibitors: Synthesis, In Vitro Evaluation, QSAR, and Molecular Docking Studies” (International Journal of Molecular Sciences, 2025)
